# According to paper PMC7031696 (Cell chemical biology, 2019):
# Like-named read-outs stand apart in the source and are kept apart here.
# Assays:
# [1] = system: 3D7-MR4 trophozoite parasite-infected RBCs; assay: Metabolomic profiling (hydrophilic metabolite changes, UHPLC-MS); assay type: cell-based, Plasmodium falciparum
# [2] = system: Plasmodium falciparum 3D7-A10 parasites; assay: Stage specificity assay (8-h exposure of synchronized stages, IC50^8h); assay type: cell-based; details: for IC50: Plasmodium falciparum
# [3] = system: asynchronous 3D7-A10 parasite cultures; assay: Standard 72-h exposure asexual blood stage susceptibility assay (IC50^72h); assay type: cell-based, Plasmodium falciparum; details: Plasmodium falciparum, 3D7, 72 h, read-out: Overall (72hr assay) Mean IC50 (IC50^72h)
smiles,measurement,setting,value
"CN(C(=O)c1cn2c(-c3ccc(C(F)(F)F)cc3)cnc2cn1)c1ccc(C#N)cc1 [KAI407, reference compound]",Log2(fold changes) 3-phosphoglycerate,"[1]; metabolite 3-phosphoglycerate, log2 fold change",-0.5235
same,Log2(fold changes) 4-Pyridoxic acid,"[1]; metabolite 4-Pyridoxic acid, log2 fold change",0.0000
same,Log2(fold changes) 4-aminobutyrate,"[1]; metabolite 4-aminobutyrate, log2 fold change",-0.0697
same,Log2(fold changes) 4-phosphopantetheine,"[1]; metabolite 4-phosphopantetheine, log2 fold change",-0.3259
same,Log2(fold changes) 4-phosphopantothenate,"[1]; metabolite 4-phosphopantothenate, log2 fold change",-0.0998
same,Log2(fold changes) 5-aminopentanoic acid,"[1]; metabolite 5-aminopentanoic acid, log2 fold change",0.0000
same,Log2(fold changes) 5-methyl-THF,"[1]; metabolite 5-methyl-THF, log2 fold change",0.0000
same,Log2(fold changes) 5-phosphoribosyl-1-pyrophosphate,"[1]; metabolite 5-phosphoribosyl-1-pyrophosphate, log2 fold change",0.0000
same,Log2(fold changes) 6-phospho-D-gluconate,"[1]; metabolite 6-phospho-D-gluconate, log2 fold change",-0.0493
same,Log2(fold change) HVDD,[1]; metabolite HVDD,0.0000
same,Log2(fold change) Hydroxyisocaproic acid,[1]; metabolite Hydroxyisocaproic acid,0.0000
same,Log2(fold change) IDP,[1]; metabolite IDP,-0.1372
same,Log2(fold change) IMP,[1]; metabolite IMP,0.0398
same,Log2(fold change) Inositol,[1]; metabolite Inositol,0.0000
same,Log2(fold change) Isopentyl-PP,[1]; metabolite Isopentyl-PP,0.0000
same,Log2(fold change) L-arginino-succinate,[1]; metabolite L-arginino-succinate,0.0109
same,Log2(fold change) LD,[1]; metabolite LD,0.0079
same,Log2(fold change) Myristoyl/tetradecanoyl-CoA,[1]; metabolite Myristoyl/tetradecanoyl-CoA,0.0000
same,Log2(fold change) N-Acetyl-L-alanine,[1]; metabolite N-Acetyl-L-alanine,0.0065
same,Log2(fold change) N-acetyl-L-ornithine,[1]; metabolite N-acetyl-L-ornithine,-0.3674
same,Log2(fold change) N-acetyl-glucosamine-1/6-phosphate,[1]; metabolite N-acetyl-glucosamine-1/6-phosphate,-0.2974
same,Log2(fold change) N-acetyl-glutamate,[1]; metabolite N-acetyl-glutamate,-0.1156
same,Log2(fold change) N-acetyl-glutamine,[1]; metabolite N-acetyl-glutamine,-0.4039
same,Log2(fold change) N-carbamoyl-L-aspartate,[1]; metabolite N-carbamoyl-L-aspartate,-0.0890
same,Log2(fold change) NAD+,[1]; metabolite NAD+,-0.0062
same,Log2(fold change) NADH,[1]; metabolite NADH,0.3557
same,Log2(fold change) NADP+,[1]; metabolite NADP+,0.1126
same,Log2(fold change) NADPH,[1]; metabolite NADPH,0.1591
same,Log2(fold change) O-acetyl-L-serine,[1]; metabolite O-acetyl-L-serine,0.0000
same,Log2(fold change) Octoluse 8/1P,[1]; metabolite Octoluse 8/1P,-0.0134
same,Log2(fold change) Octoluse Bisphosphate,[1]; metabolite Octoluse Bisphosphate,-0.3290
same,Log2(fold change) PD,[1]; metabolite PD,-0.6855
same,Log2(fold change) PE,[1]; metabolite PE,-0.6905
same,Log2(fold change) PEE,[1]; metabolite PEE,-0.7885
same,Log2(fold change) PEEK,[1]; metabolite PEEK,-0.8519
same,Log2(fold change) PVNF,[1]; metabolite PVNF,-0.9231
same,Log2(fold change) Pyroglutamic acid,[1]; metabolite Pyroglutamic acid,-0.1373
same,Log2(fold change) Pyrophosphate,[1]; metabolite Pyrophosphate,0.0000
same,Log2(fold change) Ribose-5-phosphate,[1]; metabolite Ribose-5-phosphate,-0.3312
same,Log2(fold change) S-adenosyl-L-homocysteine,[1]; metabolite S-adenosyl-L-homocysteine,-0.0194
same,Log2(fold change) S-adenosyl-L-methioninamine,[1]; metabolite S-adenosyl-L-methioninamine,0.0000
same,Log2(fold change) S-adenosyl-L-methionine,[1]; metabolite S-adenosyl-L-methionine,0.0000
same,Log2(fold change) S-methyl-5'-thioadenosine,[1]; metabolite S-methyl-5'-thioadenosine,0.0000
same,Log2(fold change) SD,[1]; metabolite SD,-0.4923
same,Log2(fold change) SDL,[1]; metabolite SDL,0.0000
same,Log2(fold change) SID,[1]; metabolite SID,0.0000
same,Log2(fold change) Sedoheptulose bisphosphate,[1]; metabolite Sedoheptulose bisphosphate,-0.3584
same,Log2(fold change) Thiamine pyrophosphate,[1]; metabolite Thiamine pyrophosphate,0.0000
same,Log2(fold changes) UDP-D-glucose,"[1]; metabolite UDP-D-glucose, log2 fold change",0.1494
same,Log2(fold changes) UDP-D-glucuronate,"[1]; metabolite UDP-D-glucuronate, log2 fold change",0.0070
same,Log2(fold changes) UDP-N-acetyl-glucosamine,"[1]; metabolite UDP-N-acetyl-glucosamine, log2 fold change",0.1156
same,Log2(fold changes) UDP,"[1]; metabolite UDP, log2 fold change",0.2283
same,Log2(fold changes) UMP,"[1]; metabolite UMP, log2 fold change",0.2317
same,Log2(fold changes) UTP,"[1]; metabolite UTP, log2 fold change",0.2213
same,Log2(fold change) hydroxyphenylpyruvate,[1]; metabolite hydroxyphenylpyruvate,0.0000
same,Log2(fold change) hydroxyproline/Aminolevulinate,[1]; metabolite hydroxyproline/Aminolevulinate,-0.0075
same,Log2(fold change) hypoxanthine,[1]; metabolite hypoxanthine,0.1648
same,Log2(fold change) indole,[1]; metabolite indole,0.3490
same,Log2(fold change) inosine,[1]; metabolite inosine,-0.0766
same,Log2(fold change) isoleucine,[1]; metabolite isoleucine,0.0000
same,Log2(fold change) lactate,[1]; metabolite lactate,-0.2025
same,Log2(fold change) leucine,[1]; metabolite leucine,0.0000
same,Log2(fold change) lysine,[1]; metabolite lysine,-0.5734
same,Log2(fold change) malate,[1]; metabolite malate,-0.3950
same,Log2(fold change) maleic acid,[1]; metabolite maleic acid,-0.3624
same,Log2(fold change) methionine,[1]; metabolite methionine,0.0256
same,Log2(fold change) myo-inositol,[1]; metabolite myo-inositol,-0.1977
same,Log2(fold change) nicotinamide mononucleotide,[1]; metabolite nicotinamide mononucleotide,0.0000
same,Log2(fold change) nicotinate,[1]; metabolite nicotinate,-0.1013
same,Log2(fold change) ornithine,[1]; metabolite ornithine,-0.1781
same,Log2(fold change) orotate,[1]; metabolite orotate,0.2133
same,Log2(fold change) orotidine-5'-phosphate,[1]; metabolite orotidine-5'-phosphate,0.1629
same,Log2(fold change) oxaloacetate,[1]; metabolite oxaloacetate,0.0000
same,Log2(fold change) p-aminobenzoate,[1]; metabolite p-aminobenzoate,-0.0216
same,Log2(fold change) p-hydroxybenzoate,[1]; metabolite p-hydroxybenzoate,0.3646
same,Log2(fold change) pantothenate,[1]; metabolite pantothenate,-0.2828
same,Log2(fold change) phenylalanine,[1]; metabolite phenylalanine,-0.1837
same,Log2(fold change) phenylpyruvate,[1]; metabolite phenylpyruvate,0.0000
same,Log2(fold change) phosphoenolpyruvate,[1]; metabolite phosphoenolpyruvate,-0.3146
same,Log2(fold change) prephenate,[1]; metabolite prephenate,-0.3616
same,Log2(fold change) proline,[1]; metabolite proline,-0.1191
same,Log2(fold change) pyridoxine,[1]; metabolite pyridoxine,-0.0925
same,Log2(fold change) pyruvate,[1]; metabolite pyruvate,-0.4635
same,Log2(fold change) riboflavin,[1]; metabolite riboflavin,0.1454
same,Log2(fold change) ribose,[1]; metabolite ribose,0.2742
same,Log2(fold change) ribose-phosphate,[1]; metabolite ribose-phosphate,0.0000
same,Log2(fold change) ribulose-5-phosphate,[1]; metabolite ribulose-5-phosphate,0.0000
same,Log2(fold change) serine,[1]; metabolite serine,0.1757
same,Log2(fold change) sn-glycerol-3-phosphate,[1]; metabolite sn-glycerol-3-phosphate,-0.3504
same,Log2(fold change) succinate/Methylmalonic acid,[1]; metabolite succinate/Methylmalonic acid,-0.0586
same,Log2(fold change) succinyl-CoA/methylmalonyl-CoA,[1]; metabolite succinyl-CoA/methylmalonyl-CoA,0.0000
same,Log2(fold change) taurine,[1]; metabolite taurine,0.0000
same,Log2(fold change) thiamine,[1]; metabolite thiamine,-0.0019
same,Log2(fold change) threonine/homoserine,[1]; metabolite threonine/homoserine,-0.0036
same,Log2(fold change) thymidine,[1]; metabolite thymidine,0.0000
same,Log2(fold changes) thymine,"[1]; metabolite thymine, log2 fold change",0.0000
same,Log2(fold changes) trehalose-6-Phosphate,"[1]; metabolite trehalose-6-Phosphate, log2 fold change",0.0000
same,Log2(fold changes) tryptophan,"[1]; metabolite tryptophan, log2 fold change",-0.0140
same,Log2(fold changes) tyrosine,"[1]; metabolite tyrosine, log2 fold change",0.0814
same,Log2(fold changes) uridine,"[1]; metabolite uridine, log2 fold change",0.2403
same,Ratio lowest IC50 8hr/IC50 72hr,[2]; 3D7-A10,3.9
same,overall activity profile (stages on which active),[2]; 8-h exposures,activity against only schizonts
same,IC50,"[2]; 3D7, read-out: Early rings Mean IC50, shift 2, 8-h exposure 0–8 hr, line 'shift 2'",16.3 µM
same,IC50,"[2]; 3D7, read-out: Early trophozoites Mean IC50, shift 2, 8-h exposure 16–24 hr, line 'shift 2' of biphasic dose response",5.14 µM
same,IC50,"[2]; 3D7, read-out: Late rings Mean IC50, shift 2, 8-h exposure 8–16 hr, line 'shift 2'",14 µM
same,IC50,"[2]; 3D7, read-out: Late trophozoites Mean IC50, shift 1, 8-h exposure 24–32 hr, line 'shift 1' of biphasic dose response",0.161 µM
same,IC50,"[2]; 3D7, read-out: Late trophozoites Mean IC50, shift 2, 8-h exposure 24–32 hr, line 'shift 2' of biphasic dose response",13.4 µM
same,IC50,"[2]; 3D7, read-out: Schizonts Mean IC50, shift 2, 8-h exposure 32–40 hr, line 'shift 2'",0.0462 µM
same,Stage of peak activity (Figure 6),[2]; period when the parasite was most susceptible (lowest IC50^8h),schizonts
same,IC50,[3],0.0118 µM
